According to patent publication US20250205342A1, “IRAK DEGRADERS AND USES THEREOF” (Kymera Therapeutics, Inc., priority 2022, published 2025):

Experiments:
[1] = target: T1, IRAK4 (Homo sapiens, UniProt Q9NWZ3); test: IRAK4 degradation in OCI-LY10 (MSD, Meso Scale Discovery); assay type: cell-based; design: endogenous in cells; host or cells: OCI-LY10; settings: OCI-LY10 cells, 24 h
T1 sequence (Q9NWZ3 1-460): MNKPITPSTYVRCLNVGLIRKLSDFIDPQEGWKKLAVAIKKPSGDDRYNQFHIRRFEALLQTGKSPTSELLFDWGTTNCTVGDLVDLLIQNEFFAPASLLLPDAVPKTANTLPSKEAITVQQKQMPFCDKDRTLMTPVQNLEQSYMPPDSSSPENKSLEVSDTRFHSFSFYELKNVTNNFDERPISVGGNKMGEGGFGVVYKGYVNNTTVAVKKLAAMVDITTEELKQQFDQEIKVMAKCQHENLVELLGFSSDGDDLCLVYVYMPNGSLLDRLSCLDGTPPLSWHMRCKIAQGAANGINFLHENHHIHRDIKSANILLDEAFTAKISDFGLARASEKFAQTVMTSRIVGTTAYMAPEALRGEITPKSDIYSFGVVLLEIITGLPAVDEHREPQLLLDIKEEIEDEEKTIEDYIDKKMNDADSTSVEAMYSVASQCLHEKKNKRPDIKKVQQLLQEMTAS
Method: Degradation of IRAK4 in OCI-LY10 was quantitatively measured using Meso Scale Discovery technology. OCI-LY10 cells were seeded in 96-well plates (Corning 3799) with a density of 300,000 cells per well in 100 μL fresh media. Compounds were then added to the assay plates with a final top concentration of 1 to 10 μM in a 1:3 dilution series with total of 8 doses. The assay plates were then incubated for 4 to 24 hours at 37° C. under 5% CO2. The assay plates were then centrifuged for 5 minutes and the cell pellets were treated with 100 μL/well RIPA lysis buffer (Boston BioProducts BP-115D) with proteinase inhibitors. To prepare MSD assay plates (Meso Scale Discovery Catalog number L15XA-3), the plates were coated with 2 ug/mL capture antibody (mouse Anti-IRAK4 antibody [2H9], ab119942) in PBS, at 40 μL/well. The plates were then incubated overnight at […], washed 3 times with 150 μL/well TBST buffer (Cell Signaling Technology, Catalog number 9997S) and blocked with 150 μL/well blocking buffer (Meso Scale Discovery Catalog number R^93BA-4). Cell lysates were then added to MSD assay plates and the plates were incubated at room temperature for 1 hour. The plates were then washed 3 times with 150 μL/well TBST buffer and 25 μL/well primary detection antibody (rabbit Anti-IRAK4 antibody [Y279], from Abcam. Catalog number ab32511, 1 μg/mL). The assay plates were then incubated at room temperature for 1 hour, washed 3 times with 150 μL/well TBST buffer and 25 μL/well secondary detection antibody, SULFO-TAG anti-rabbit antibody were added (anti-rabbit antibody from Meso Scale Discovery, Catalog number R^32AB-1, 1 μg/mL). The assay plates were then incubated at room temperature for 1 hour, washed 3 times with 150 μL/well TBST buffer, and 150 μL/well MSD reading buffer (Meso Scale Discovery catalog number R^92TC-2) was added. The plates were then analyzed by a MSD reader (Meso Scale Discovery, Model Quick Plex SQ 120). The data was then analyzed by software Prism 7.0 from GraphPad and the dose-depended IRAK4 degradation were fit using a three-parameter logistic equation to calculate DC50.
(§1) IRAK4 MSD degradation in OCI-LY10 results at 4 and 24 hrs and hPBMC at 20 hrs for compounds of the invention are presented in Table 3. The letter codes for IRAK4 DC50 include: A (<0.1 μM), B (0.1-1.0 μM), C(>1.0-10.0 μM), D (>10.0 μM or not determined).

[2] = target: T1, IRAK4; test: hPBMC IRAK4 degradation flow assay (monocytes); assay type: cell-based; design: endogenous in cells; host or cells: human PBMCs (monocytes, CD14 positive gate); settings: CD14 positive monocytes, 20 h, read-out: hPBMC monocyte DC50 at 20 h
Method: In the hPBMC IRAK4 degradation flow assay, frozen PBMCs were thawed into RPMI with 10% FBS and allowed to recover. On the same day as thawed, PBMCs were plated in 96 well plate, 90 μL per well. Compound plates were prepared and a 10 point, 5-fold dilution was performed with a final DMSO concentration of 0.1%. Compound 10 μL per well was added, sealed and incubated at 37° C., 5% CO2 for 20 hours (for 4 hour treatment, compounds were prepared and added the following day). Following the treatment incubation period (day 1), 1.6% PFA was added to PBMC plate and placed on plate shaker for 30 seconds and incubated for 10 mins at room temperature. Cells were spun down and washed two times with PBS/0.5% BSA, aspirated to pellet and placed into −80° C. freezer until further processing for flow. On the flow run day, PBMC plates were thawed and samples were transferred to PCR plates. The pre-perm staining cocktail (CD3 Ax488/CD8 BUV805/CD14 BUV395/CD16/56 BV711/CD19 BV785) was added to samples and incubated for 30 minutes at room temperature. Samples were washed two times and permeabilized with methanol for 10 minutes at 4° C. Samples were washed two times and the post-perm staining cocktail (CD4 PE/IRAK4 Ax647 BD #560315) was added and incubated for 30 minutes at room temperature. Samples were washed two times with PBS/BSA and run on a BD LSRFortessa. Mononuclear cells are gated by SSCH/FSCH and single cells. Monocytes are then gated through CD14 positive gate and lymphocytes are gated through CD14 negative gate. To determine absolute DC50 and max degradation values, MFI values were normalized to DMSO max and 20 hour 10 µM min control. Twenty hour dose curves were calculated using a 4 parameter logistic regression curve fit, no constraints (Top doses were removed if hook effects were observed and the bottom was constrained to 0).
as §1

Row | SMILES | DC50 [1] | DC50 [2]
1 | CCOC(=O)Cn1cc(NC(=O)c2cccc3c2ccn3CCCNC[C@H]2CC[C@H](n3cc4cc(NC(=O)c5cccc(C(F)(F)F)n5)c(C(C)(C)O)cc4n3)CC2)ccc1=O [Compound I-79] | > 10 µM | > 10 µM
2 | O=C(O)Cn1cc(NC(=O)c2cccc3c2ccn3CCCNC[C@H]2CC[C@H](n3cc(NC(=O)c4cnn5ccc(N6C[C@H]7C[C@@H]6CO7)nc45)c(C(F)F)n3)CC2)ccc1=O [Compound I-77] | > 10 µM | > 10 µM
3 | O=C(O)Cn1cc(NC(=O)[C@H]2CCCN(c3cncc(OCCOCCOCCNC[C@H]4CC[C@H](n5cc(NC(=O)c6cnn7ccc(N8C[C@H]9C[C@@H]8CO9)nc67)c(C(F)F)n5)CC4)c3)C2)ccc1=O [Compound I-44] | > 10 µM | > 10 µM
4 | CCOC(=O)Cn1cc(NC(=O)c2cccc(-c3cncc(CCCCCCCCCNC[C@H]4CC[C@H](n5cc6cc(NC(=O)c7cccc(C(F)(F)F)n7)c(C(C)(C)O)cc6n5)CC4)c3)c2)ccc1=O [Compound I-88, Ethyl 2-[5-[[3-[5-[9-[4-[6-(1-hydroxy-1-methyl-ethyl)—5-[[6-(trifluoromethyl)pyridine-2-carbonyl]amino]indazol-2-yl]cyclohexyl]methylamino]nonyl]-3-pyridyl]benzoyl]amino]-2-oxo-1-pyridyl acetate] | 1 to 10 µM | 0.1 to 1 µM
5 | CCOC(=O)Cn1cc(NC(=O)C2CCCN(c3cncc(N4CCC(CN(C)C[C@H]5CC[C@H](n6cc7cc(NC(=O)c8cccc(C(F)(F)F)n8)c(OC)cc7n6)CC5)CC4)c3)C2)ccc1=O (stereo partly shown) [Compound I-20] | > 10 µM | > 10 µM
6 | CCOC(=O)Cn1cc(NC(=O)c2cccc(-c3cncc(CCCNC[C@H]4CC[C@H](n5cc6cc(NC(=O)c7cccc(C(F)(F)F)n7)c(C(C)(C)O)cc6n5)CC4)c3)c2)ccc1=O [Compound I-90] | > 10 µM | > 10 µM
7 | CC(C)(O)c1cc2nn([C@H]3CC[C@H](CNCCCn4ccc5c(C(=O)Nc6ccc(=O)n(CC(=O)O)c6)cccc54)CC3)cc2cc1NC(=O)c1cccc(C(F)(F)F)n1 [Compound I-78] | > 10 µM | > 10 µM
8 | O=C(O)Cn1cc(NC(=O)c2cccc(-c3cncc(CCCCCCNC[C@H]4CC[C@H](n5cc(NC(=O)c6cnn7ccc(N8C[C@H]9C[C@@H]8CO9)nc67)c(C(F)F)n5)CC4)c3)c2)ccc1=O [Compound I-92] | > 10 µM | > 10 µM
9 | CCOC(=O)Cn1cc(NC(=O)[C@H]2CCCN(c3cncc(NCCOCCOCCNC[C@H]4CC[C@H](n5cc6cc(NC(=O)c7cccc(C(F)(F)F)n7)c(OC)cc6n5)CC4)c3)C2)ccc1=O [Compound I-5] | > 10 µM | 1 to 10 µM
10 | CCOC(=O)Cn1cc(NC(=O)c2ccc(-c3ccc(CCCCCCCCCNC[C@H]4CC[C@H](n5cc(NC(=O)c6cnn7ccc(N8C[C@H]9C[C@@H]8CO9)nc67)c(C(F)F)n5)CC4)cc3)cc2OC)ccc1=O [Compound I-67] | > 10 µM | > 10 µM
11 | CCOC(=O)Cn1cc(NC(=O)c2cccc(-c3cncc(CCCCCCCCCNC[C@H]4CC[C@H](n5cc(NC(=O)c6cnn7ccc(N8C[C@H]9C[C@@H]8CO9)nc67)c(C(F)F)n5)CC4)c3)c2)ccc1=O [Compound I-89] | 1 to 10 µM | 1 to 10 µM
12 | COC(=O)Cn1cc(NC(=O)c2cccc(-c3cncc4c(CCCCCCNC[C@H]5CC[C@H](n6cc7cc(NC(=O)c8cccc(C(F)(F)F)n8)c(C(C)(C)O)cc7n6)CC5)cccc34)c2)ccc1=O [Compound I-56] | > 10 µM | > 10 µM
13 | CCOC(=O)Cn1cc(NC(=O)[C@H]2CCCN(c3cncc(NCCNC[C@H]4CC[C@H](n5cc(NC(=O)c6cnn7ccc(N8C[C@H]9C[C@@H]8CO9)nc67)c(C(F)F)n5)CC4)c3)C2)ccc1=O [Compound I-16] | > 10 µM | > 10 µM

The next lines start with the values.

Row | DC50 [1] | DC50 [2] | SMILES
14 | > 10 µM | 1 to 10 µM | CC(C)(O)c1cc2nn([C@H]3CC[C@H](CNCCCCCCCCCc4cncc(-c5cccc(C(=O)Nc6ccc(=O)n(CC(=O)O)c6)c5)c4)CC3)cc2cc1NC(=O)c1cccc(C(F)(F)F)n1 [Compound I-84]
15 | > 10 µM | > 10 µM | O=C(O)Cn1cc(NC(=O)[C@H]2CCCN(c3cncc(OCCCCNC[C@H]4CC[C@H](n5cc(NC(=O)c6cnn7ccc(N8C[C@H]9C[C@@H]8CO9)nc67)c(C(F)F)n5)CC4)c3)C2)ccc1=O [Compound I-46]
16 | > 10 µM | 0.1 to 1 µM | COc1cc2nn([C@H]3CC[C@H](CN4CCC(OCC#Cc5cncc(N6CCC[C@H](C(=O)Nc7ccc(=O)n(CC(=O)O)c7)C6)c5)CC4)CC3)cc2cc1NC(=O)c1cccc(C(F)(F)F)n1 [Compound I-9]
17 | > 10 µM | > 10 µM | O=C(O)Cn1cc(NC(=O)c2cccc(-c3cncc(CCCNC[C@H]4CC[C@H](n5cc(NC(=O)c6cnn7ccc(N8C[C@H]9C[C@@H]8CO9)nc67)c(C(F)F)n5)CC4)c3)c2)ccc1=O [Compound I-87]
18 | > 10 µM | > 10 µM | COC(=O)Cn1cc(NC(=O)c2cccc(-c3cncc4cc(CCCCCCCCCNC[C@H]5CC[C@H](n6cc7cc(NC(=O)c8cccc(C(F)(F)F)n8)c(C(C)(C)O)cc7n6)CC5)ccc34)c2)ccc1=O [Compound I-55]
19 | > 10 µM | 1 to 10 µM | CCOC(=O)Cn1cc(NC(=O)[C@H]2CCCN(c3cncc(OCCNC[C@H]4CC[C@H](n5cc6cc(NC(=O)c7cccc(C(F)(F)F)n7)c(OC)cc6n5)CC4)c3)C2)ccc1=O [Compound I-33]
20 | > 10 µM | 1 to 10 µM | CCOC(=O)Cn1cc(NC(=O)[C@H]2CCCN(c3cncc(C4CCN(C[C@H]5CC[C@H](n6cc7cc(NC(=O)c8cccc(C(F)(F)F)n8)c(OC)cc7n6)CC5)CC4)c3)C2)ccc1=O [Compound I-17]
21 | > 10 µM | > 10 µM | CC(C)(O)c1cc2nn([C@H]3CC[C@H](CNCCCCCCc4cc(C(=O)Nc5ccc(=O)n(CC(=O)O)c5)cc(-c5cccnc5)c4)CC3)cc2cc1NC(=O)c1cccc(C(F)(F)F)n1 [Compound I-96]
22 | > 10 µM | 1 to 10 µM | COc1cc2nn([C@H]3CC[C@H](CNCCOCCOCCOCCOCCOc4cncc(N5CCC[C@H](C(=O)Nc6ccc(=O)n(CC(=O)O)c6)C5)c4)CC3)cc2cc1NC(=O)c1cccc(C(F)(F)F)n1 [Compound I-38]
23 | > 10 µM | > 10 µM | CCOC(=O)Cn1cc(NC(=O)[C@H]2CCCN(c3cncc(NCCOCCOCCOCCOCCNC[C@H]4CC[C@H](n5cc(NC(=O)c6cnn7ccc(N8C[C@H]9C[C@@H]8CO9)nc67)c(C(F)F)n5)CC4)c3)C2)ccc1=O [Compound I-6]
